Measured values published in paper PMC7031696 (Cell chemical biology, 2019).

Test system: 3D7-MR4 trophozoite parasite-infected RBCs
Assay: Metabolomic profiling (hydrophilic metabolite changes, UHPLC-MS)
Type: cell-based, Plasmodium falciparum

CC(C)(C)c1ccc2c(c1)CN(Cc1ccc(Cl)cc1)CO2 [MMV000442]
Log2(fold changes) adenosine (metabolite adenosine, log2 fold change): 0.0000
Log2(fold changes) alanine/sarcosine (metabolite alanine/sarcosine, log2 fold change): -0.9186
Log2(fold changes) anthranilate (metabolite anthranilate, log2 fold change): 0.3315
Log2(fold changes) arginine (metabolite arginine, log2 fold change): -1.6314
Log2(fold changes) asparagine (metabolite asparagine, log2 fold change): -0.3296
Log2(fold changes) aspartate (metabolite aspartate, log2 fold change): -0.6205
Log2(fold changes) biotin (metabolite biotin, log2 fold change): -0.8987
Log2(fold changes) cCMP (metabolite cCMP, log2 fold change): 0.0000
Log2(fold changes) cGMP (metabolite cGMP, log2 fold change): 0.0000
Log2(fold changes) carnitine (metabolite carnitine, log2 fold change): 0.0000
Log2(fold changes) citrate/isocitrate (metabolite citrate/isocitrate, log2 fold change): 0.0000
Log2(fold change) of coenzyme A (metabolite coenzyme A): 0.0000
Log2(fold change) of cyclic-AMP (metabolite cyclic-AMP): -0.6289
Log2(fold change) of cytidine (metabolite cytidine): 0.6525
Log2(fold change) of dAMP (metabolite dAMP): 0.2859
Log2(fold change) of dATP (metabolite dATP): 0.0000
Log2(fold change) of dCDP (metabolite dCDP): -0.4379
Log2(fold change) of dCMP (metabolite dCMP): 0.0000
Log2(fold change) of dCTP (metabolite dCTP): 0.0000
Log2(fold change) of dGDP/ADP (metabolite dGDP/ADP): -0.0785
Log2(fold change) of dGMP/AMP (metabolite dGMP/AMP): 0.0000
Log2(fold change) of dGTP/ATP (metabolite dGTP/ATP): 0.0000
Log2(fold change) of dTDP (metabolite dTDP): -0.1987
Log2(fold change) of dTMP (metabolite dTMP): 0.0000
Log2(fold change) of dTTP (metabolite dTTP): -0.2587
Log2(fold change) of dUMP (metabolite dUMP): 0.0000
Log2(fold change) of dUTP (metabolite dUTP): -0.3266
Log2(fold change) of deoxyguanosine (metabolite deoxyguanosine): 0.0000
Log2(fold change) of deoxyinosine (metabolite deoxyinosine): 0.0000
Log2(fold change) of deoxyribose-phosphate (metabolite deoxyribose-phosphate): 0.7610
Log2(fold change) of deoxyuridine (metabolite deoxyuridine): 0.1388
Log2(fold change) of dihydroorotate (metabolite dihydroorotate): -0.6717
Log2(fold change) of folate (metabolite folate): -0.1041
Log2(fold change) of fructose-1-6-bisphosphate (metabolite fructose-1-6-bisphosphate): -0.1009
Log2(fold change) of fructose-6-phosphate (metabolite fructose-6-phosphate): -0.3802
Log2(fold change) of fumarate (metabolite fumarate): -0.7813
Log2(fold change) of glucono-lactone (metabolite glucono-lactone): 0.0000
Log2(fold change) of glucose-1/6-phosphate (metabolite glucose-1/6-phosphate): 0.0000
Log2(fold change) of glutamate (metabolite glutamate): -0.2803
Log2(fold change) of glutamine (metabolite glutamine): -0.0929
Log2(fold change) of glutathione (metabolite glutathione): -0.1808
Log2(fold change) glutathione disulfide (metabolite glutathione disulfide): -0.3868
Log2(fold change) glycerate (metabolite glycerate): -0.4490
Log2(fold change) guanine (metabolite guanine): -0.8448
Log2(fold change) guanosine (metabolite guanosine): -1.2469
Log2(fold change) histidine (metabolite histidine): -1.0996
Log2(fold change) homocysteic acid (metabolite homocysteic acid): -0.4943
Log2(fold change) hydroxyphenylpyruvate (metabolite hydroxyphenylpyruvate): 0.0000
Log2(fold change) hydroxyproline/Aminolevulinate (metabolite hydroxyproline/Aminolevulinate): -0.0777
Log2(fold change) hypoxanthine (metabolite hypoxanthine): -0.1293
Log2(fold change) indole (metabolite indole): 0.0000
Log2(fold change) inosine (metabolite inosine): -0.6031
Log2(fold change) isoleucine (metabolite isoleucine): -0.8559
Log2(fold change) lactate (metabolite lactate): -0.6662
Log2(fold change) leucine (metabolite leucine): 0.0000
Log2(fold change) lysine (metabolite lysine): -2.7291
Log2(fold change) malate (metabolite malate): -1.5961
Log2(fold change) maleic acid (metabolite maleic acid): 0.0000
Log2(fold change) methionine (metabolite methionine): -0.3354
Log2(fold change) myo-inositol (metabolite myo-inositol): 0.0000
Log2(fold change) nicotinamide mononucleotide (metabolite nicotinamide mononucleotide): -1.1163
Log2(fold change) nicotinate (metabolite nicotinate): -0.1414
Log2(fold change) ornithine (metabolite ornithine): -0.3825
Log2(fold change) orotate (metabolite orotate): 0.0000
Log2(fold change) orotidine-5'-phosphate (metabolite orotidine-5'-phosphate): -4.2271
Log2(fold change) oxaloacetate (metabolite oxaloacetate): 0.0000
Log2(fold change) p-aminobenzoate (metabolite p-aminobenzoate): 0.0000
Log2(fold change) p-hydroxybenzoate (metabolite p-hydroxybenzoate): 0.0000
Log2(fold change) pantothenate (metabolite pantothenate): -0.5576
Log2(fold change) phenylalanine (metabolite phenylalanine): -0.7473
Log2(fold change) phenylpyruvate (metabolite phenylpyruvate): 0.0000
Log2(fold change) phosphoenolpyruvate (metabolite phosphoenolpyruvate): 0.5342
Log2(fold change) prephenate (metabolite prephenate): -0.6985
Log2(fold change) proline (metabolite proline): -0.4674
Log2(fold change) pyridoxine (metabolite pyridoxine): -0.4977
Log2(fold change) pyruvate (metabolite pyruvate): -0.6971
Log2(fold change) riboflavin (metabolite riboflavin): 0.0000
Log2(fold change) ribose (metabolite ribose): -0.3439
Log2(fold change) ribose-phosphate (metabolite ribose-phosphate): -0.4255
Log2(fold change) ribulose-5-phosphate (metabolite ribulose-5-phosphate): 0.0000
Log2(fold change) serine (metabolite serine): -0.2977
Log2(fold change) sn-glycerol-3-phosphate (metabolite sn-glycerol-3-phosphate): 0.0000
Log2(fold change) succinate/Methylmalonic acid (metabolite succinate/Methylmalonic acid): 0.2362
Log2(fold change) succinyl-CoA/methylmalonyl-CoA (metabolite succinyl-CoA/methylmalonyl-CoA): 0.0000
Log2(fold change) taurine (metabolite taurine): 0.0000
Log2(fold change) thiamine (metabolite thiamine): -0.4264
Log2(fold change) threonine/homoserine (metabolite threonine/homoserine): -0.5095
Log2(fold change) thymidine (metabolite thymidine): 0.0000
Log2(fold changes) thymine (metabolite thymine, log2 fold change): 0.0000
Log2(fold changes) trehalose-6-Phosphate (metabolite trehalose-6-Phosphate, log2 fold change): 0.0000
Log2(fold changes) tryptophan (metabolite tryptophan, log2 fold change): -0.3248
Log2(fold changes) tyrosine (metabolite tyrosine, log2 fold change): -0.3731
Log2(fold changes) uridine (metabolite uridine, log2 fold change): -0.7263
Log2(fold changes) valine (metabolite valine, log2 fold change): 0.0000
Log2(fold changes) xanthine (metabolite xanthine, log2 fold change): 0.0000
Log2(fold changes) xanthosine-5-phosphate (metabolite xanthosine-5-phosphate, log2 fold change): 0.0000
Log2(fold changes) xanthosine (metabolite xanthosine, log2 fold change): -0.5168
Log2(fold changes) xylose (metabolite xylose, log2 fold change): 0.0000
